Results as given in US20120213707A1, “Riboflavin Based Aerosol and Use as Placebo in Trials” (MPEX PHARMACEUTICALS, INC., priority 2009, published 2012).
Like-named read-outs stand apart in the source and are kept apart here.

Legend:
[1] = type: in vivo, rat (rattus norvegicus)
Description: (§1) The objective of the study was to determine the toxicity and toxicokinetic profile of the test article, riboflavin 5′-phosphate, following inhalation (nose-only) administration to rats for 28 consecutive days.
(§2) Treatment: Daily inhalation by nose-only exposure for 60 minutes. Duration of treatment: 28 Days.
(§3) Assessments of mortality, clinical signs, body weights, food consumption, ophthalmology, functional observation battery and clinical chemistry, hematology, coagulation and urinalysis were performed. Plasma prepared from blood samples were collected from designated animals on the first and last days of the study and analyzed for Riboflavin 5′-phosphate content and toxicokinetic evaluation. All toxicology (main study) animals were euthanized upon completion of the 28-day treatment period and selected tissues were retained, weighed and examined microscopically. Toxicokinetic animals were euthanized following completion of blood sampling and were not subjected to necropsy examination or tissue collection. The following tables summarize tests, methods, and abbreviations used in hematology tests (Table 3), coagulation tests (Table 4), clinical chemistry tests (Table 5), and urinalysis (Table 6).

Sprague-Dawley rats = experiment: 28-day aerosolized liquid inhalation (nose-only) toxicity study in Sprague-Dawley rats; type: in vivo
From the text: as §1
Test Article: riboflavin 5′-phosphate sodium salt hydrate; alternate identity: vitamin B2 phosphate; description: yellow crystals; potency: 74%. Vehicle article: saline (0.9% (w/v) NaCl for injection); description: clear colorless solution. Test system: rat (rattus norvegicus); strain: Sprague-Dawley Crl:CD (SD).
The test (0.5 mg/mL, 2.0 mg/mL, 5.0 mg/mL) and/or vehicle control formulations (0 mg/mL) for each group were prepared fresh daily on each day by dissolving the test article in saline. All prepared test article formulations were protected from light and kept at room temperature (RT).
as §2
(§4) The aerosol was produced by metering the flow of the test article or vehicle formulations to 3 clinical nebulizers (Sidestream) connected to high velocity airstreams (10 L/min to each nebuliser). The aerosol produced was discharged through a 40 mm diameter tube into a flow-past inhalation exposure system. The airflow rate through the exposure system was monitored and recorded manually during the aerosol generation. Airflow to the exposure system was controlled by the absolute volume of air supplying the aerosol generators using variable area flow meters.
as §3

[2] = Aerosol particle size distribution, rat nose-only exposure system (7-Stage Mercer Cascade Impactor); type: physicochemical
From the text: as §4
Determinations of aerosol concentration, particle size distribution, oxygen concentration, relative humidity and temperature was performed on test atmosphere samples collected from a representative port of the exposure system, with a collection sample flow-rate of 1 L/min. The sample flow rates were precisely controlled using variable area flow meters that were calibrated using a primary airflow calibrator before use. The absolute volume of each aerosol concentration sample was measured using a wet type gas meter.
The distribution of particle size in the generated aerosols for Groups 2 to 4 was measured weekly during the treatment period by collecting samples into a 7-Stage Mercer Cascade Impactor and the sample substrates obtained were transferred to the analytical chemistry laboratory of ITR Laboratories Canada Inc. for the chemical determination of the particle size of the aerosolized Riboflavin 5′-phosphate using a validated analytical method (ITR Study No. 40241). The distribution of particle size in the generated aerosols for Group 1 was estimated once weekly by gravimetric determination. The mass median aerodynamic diameter (MMAD) and the Geometric Standard Deviation (GSD) were calculated based on the results obtained from the impactor using a log-probit transformation.

[3] = female, Sprague-Dawley, rat, in vivo, 0.96 mg/kg/day
[4] = female, Sprague-Dawley, rat, in vivo, 2.4 mg/kg/day
[5] = male, Sprague-Dawley, rat, in vivo, 2.4 mg/kg/day
[6] = male, Sprague-Dawley, rat, in vivo, inhaled or intranasal, 0.96 mg/kg/day
[7] = Group 2 Low Dose, 0.5 mg/mL formulation
[8] = Group 3 Mid Dose, 2.0 mg/mL formulation
[9] = Group 4 High Dose, 5.0 mg/mL formulation

Cc1cc2nc3c(=O)[nH]c(=O)nc-3n(C[C@H](O)[C@H](O)[C@H](O)COP(=O)(O)O)c2cc1C [riboflavin 5′-phosphate]
Cmax ratio (M/F) ([1]; both, Sprague-Dawley, rat, in vivo, 0.96 mg/kg/day): 1.59
AUC ratio (M/F) ([1]; both, Sprague-Dawley, rat, in vivo, 2.4 mg/kg/day): 1.24
AUC ratio (M/F) [1, 3]: 1.25
Cmax ratio (M/F) [1, 3]: 1.50
AUC ratio (M/F) [1, 4]: 0.672
Cmax ratio (M/F) [1, 4]: 1.17
riboflavin concentration in plasma ([1]; female, Sprague-Dawley, rat, in vivo, 24 h): 0.829 µg/mL
Tmax of riboflavin ([1]; female, Sprague-Dawley, rat, in vivo, inhaled or intranasal, 0.96 mg/kg/day): 0.00 h
Tmax of riboflavin ([1]; female, Sprague-Dawley, rat, in vivo, inhaled or intranasal, 2.4 mg/kg/day): 0.00 h
AUC ratio (M/F) [1, 5]: 0.433
Cmax ratio (M/F) [1, 5]: 0.801
AUC(0-T) of riboflavin [1, 6]: 15.9 ng·h/mL
Tmax of riboflavin [1, 6]: 0.00 h
Tmax of riboflavin ([1]; male, Sprague-Dawley, rat, in vivo, inhaled or intranasal, 2.4 mg/kg/day): 0.00 h
gender difference in riboflavin exposure ([1]; rat, in vivo): no gender difference in riboflavin exposure
riboflavin 5′-phosphate concentrations in plasma of treated animals ([1]; rat, in vivo): detected in only very few treated animals
riboflavin concentration values, males versus females ([1]; rats, Day 1): slightly higher in males than in females
No Observed Effect Level (NOEL) (Sprague-Dawley rats; Sprague-Dawley rats, once daily inhaled, 28 consecutive days, high dose group): 2.479 mg/kg/day
clinical chemistry (Sprague-Dawley rats; rat, in vivo): no changes noted in any clinical chemistry parameters that were considered to be treatment-related
coagulation times (Sprague-Dawley rats; rat, in vivo): unaffected by treatment
functional observation battery (Sprague-Dawley rats; rat, in vivo): no changes noted in any functional observation battery parameters that were considered to be treatment-related
hematology (Sprague-Dawley rats; rat, in vivo): no changes noted in any haematology parameters that were considered to be treatment-related
macroscopic findings at necropsy (Sprague-Dawley rats; rat, in vivo): no findings attributed to the test article administration
microscopic findings (Sprague-Dawley rats; rat, in vivo): no microscopic findings that were considered to be test article related
urinalysis (Sprague-Dawley rats; rat, in vivo): no changes in any of the urinalysis parameters evaluated that were considered affected by treatment
adverse effects (Sprague-Dawley rats; rat, in vivo, 2.4 mg/kg/day): no adverse effects were observed
mortality (Sprague-Dawley rats; rats, 0.244 mg/kg/day, considered accidental (restraint), not test article related): One male rat dosed at 0.244 mg/kg/day was found dead on Day 12
local or systemic toxicity (histology of lymphoid and respiratory tract tissues) (Sprague-Dawley rats; rats, 28 days inhalation): no indications of local or systemic toxicity
tolerability (Sprague-Dawley rats; rats, nose-only inhalation, 28 consecutive days): well tolerated
% of particles <3.1 μm [2, 7]: 91.8%
MMAD [2, 7]: 1.2 μm
% of particles <3.1 μm [2, 8]: 91.9%
MMAD [2, 8]: 1.2 μm
% of particles <3.1 μm [2, 9]: 87.8%
MMAD [2, 9]: 1.2 μm
